From patent US7871635B2, “Use of compound that inactivates protein kinase A in a composition containing a cosmetically acceptable medium for lightening the skin” (Societe d'Exploitation de Produits pour les Industries …, priority 2002, dated 2011)

Legend:
Protein kinase A = experiment: Study of protein kinase A activity (phosphorylation of histone H1); format: biochemical, bovine; conditions: 1 mg/ml; for Enzymatic activity relative to the control (protein kinase A): cAMP 3 μM, histone H1 200 μg/ml, 20 minutes at 30° C.
Method: The influence of N-undecylenoylphenylalanine, kojic acid and arbutin on the phosphorylation of […] with protein kinase A (PK A) was compared. Protein kinase A is extracted from bovine brains via the method described in: “[…]., Sano M., Hayashi K., Inoue T., Naito […]. Biol. Chem., 265, 1990, 5267-5272”. […] Sodium hydroxide has no effect on the parameter studied. […] Control cultures are incubated, in the absence of product, and in the presence of radioactive ATP and histone H1. Each test is performed in triplicate. […] The results given in the table below are the means of the three tests performed for each of the products. They are expressed as a percentage of enzymatic activity relative to the control group and as a percentage of inhibition.

[1] = test system: Pigmented human epidermides (phototype IV); experiment: Chromametric measurement of the epidermal pigmentation in reconstructed human epidermides; format: cell-based; conditions: for L* (% of the control group) / a* (% of the control group) / b* (% of the control group) / b* / a* / L*: topical, 4 days; for b*: control 7.54 ± 0.00 AU; for a*: control 10.23 ± 0.51 AU; for L*: control 41.38 ± 0.69 AU
Method: Pigmented human epidermides (phototype IV) supplied by Skinethic, of 0.63 cm^2, are reconstructed from a coculture of normal human keratinocytes (skin of the forearm, donor, 2nd passage) and from normal human melanocytes (skin of the forearm, donor of phototype IV, 3rd passage). The keratinocyte/melanocyte ratio is 10:1. The cocultures are inoculated onto inert polycarbonate filters. They are cultured for 10 days in the medium supplied by Skinethic, consisting of MCDB 153 medium supplemented with 5 μg/ml of insulin, 1.5 mM of calcium and growth factors. […] The epidermides are cultured in 6-well plates containing 1 ml of the medium described above. […] The application is performed every day for 4 consecutive days. The incubation medium of the reconstructed epidermides is renewed every day for 4 consecutive days. Control epidermides are treated with a formulation free of active principle. Each test is performed in duplicate. Three days after the final topical application, the color of the epidermides is evaluated using a chromameter (Minolta) by measuring the following parameters L*, a* and b*: • L* is the lightness index. A depigmenting product should increase this parameter; • a* represents the color spectrum from […]. A depigmenting product should reduce this parameter; • b*: represents the color spectrum from […]. A depigmenting product should reduce this parameter. The results are expressed in arbitrary units (AU) of each parameter and as a percentage of the control group.

[2] = test system: Pigmented human epidermides (phototype IV); experiment: Intracellular melanin content in reconstructed human epidermides; format: cell-based; conditions: topical, 4 days; for Intracellular melanin: control 347 ± 2 μg/ml
Method: Pigmented human epidermides (phototype IV) supplied by Skinethic, of 0.63 cm^2, are reconstructed from a coculture of normal human keratinocytes (skin of the forearm, donor, 2nd passage) and from normal human melanocytes (skin of the forearm, donor of phototype IV, 3rd passage). The keratinocyte/melanocyte ratio is 10:1. The cocultures are inoculated onto inert polycarbonate filters. They are cultured for 10 days in the medium supplied by Skinethic, consisting of MCDB 153 medium supplemented with 5 μg/ml of insulin, 1.5 mM of calcium and growth factors. […] The epidermides are cultured in 6-well plates containing 1 ml of the medium described above. […] The application is performed every day for 4 consecutive days. The incubation medium of the reconstructed epidermides is renewed every day for 4 consecutive days. Control epidermides are treated with a formulation free of active principle. Each test is performed in duplicate. […] Dermatol., 105, 1995, 361-366. The samples are centrifuged for 10 minutes at 10 000 rpm. The extracted intracellular […] measured by spectrophotometry at 500 nm. A melanin calibration range is prepared in parallel. The results are expressed as […] of intracellular melanin and as a percentage of inhibition relative to the control group.

tyrosinase = experiment: Study of phosphorylated tyrosinase activity (L-tyrosine to dopaquinone, 490 nm); format: biochemical, fungi; conditions: tyrosinase 66.66 IU/ml, tyrosine 0.2 mM, 10 minutes at 37° C.
Method: The tyrosinase used is a commercial product extracted from fungi. […] Sodium hydroxide has no effect on the parameter studied. […] Control cultures are incubated, in the absence of product, and in the presence of tyrosinase and L-tyrosine. Each test is performed in triplicate. After incubation for 10 minutes, the amount of dopaquinone […] formed is measured using a spectrophotometer at 490 nm. The results given in the table below are the means of the three tests performed for each of the products. They are expressed as IU/l of tyrosinase activity and as a percentage of inhibition of the enzymatic activity relative to the control.

MC1R receptors = molecular target: T1, MC1R receptors (Mus musculus, UniProt Q01727); experiment: Affinity study on MC1R receptors ([125I]NDP-α-MSH binding); conditions: for Activity relative to the control (percentage of specific binding): [125I]NDP-α-MSH 0.05 nM, 90 minutes at 22° C.; for inhibition at 100 µg/mL / inhibition at 1000 µg/mL: read-out: Inhibition of specific binding by the test products; for displacement of the specific binding of the ligand [125I]NDP-α-MSH: at the test concentrations (0.1 mg/ml and 1 mg/ml)
T1 construct: isolated from cell membranes of mouse melanocytes of the B16/F1 line; endogenous in cells; host or cells: B16/F1 mouse melanocyte (melanoma) cell membranes
T1 sequence (Q01727 whole entry): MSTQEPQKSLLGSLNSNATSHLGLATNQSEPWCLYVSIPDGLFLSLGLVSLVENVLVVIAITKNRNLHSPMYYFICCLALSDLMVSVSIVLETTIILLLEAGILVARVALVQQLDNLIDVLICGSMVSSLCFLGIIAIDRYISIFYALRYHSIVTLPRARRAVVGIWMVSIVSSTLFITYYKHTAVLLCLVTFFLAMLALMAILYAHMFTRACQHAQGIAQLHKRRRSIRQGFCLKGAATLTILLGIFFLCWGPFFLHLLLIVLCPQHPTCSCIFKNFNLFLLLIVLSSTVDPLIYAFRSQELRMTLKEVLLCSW
Method: MC1R receptors are isolated from cell membranes of mouse melanocytes of the B16/F1 line via the method described in: Siegrist W., Oestreicher M., Stutz M., Girard J. and […]., 8, 1988, 323-343”. […] Sodium hydroxide has no effect on the parameter studied. The MC1R receptors are incubated, in the presence or absence of these products, with an iodine-125 labeled radioactive ligand, the […]-α-melanocyte […] hormone [^125I]NDP-α-MSH at a concentration of 0.05 nM, for 90 minutes at 22° C. Control cultures are incubated, in the absence of product, and in the presence of the radioactive ligand. Each test is performed in triplicate. After incubation for 90 minutes, the cell membranes are rapidly filtered and the filters are washed several times with cold buffer. The amount of radioactive ligand bound to the MC1R receptors is measured using a scintillation counter (Topcount, Packard). The results given in the table below are the means of the three tests performed for each of the products. They are expressed as a percentage of specific binding relative to the control group and as a percentage of inhibition of this binding.

[3] = topical application at 1% and 3% (w/v) in an emulsion
[4] = formulated at 3% (w/v), listed as N-undecylenoylphenylalanine

Row | Structure (SMILES) | Inhibition of protein kinase A activity (Protein kinase A) [%] | Enzymatic activity relative to the control (protein kinase A) (Protein kinase A) [%] | L* (% of the control group) ([1]; formulated at 1% (w/v)) | a* (% of the control group) ([1]; formulated at 1% (w/v)) | b* (% of the control group) ([1]; formulated at 1% (w/v)) | b* ([1]; formulated at 1% (w/v)) [AU] | a* ([1]; formulated at 1% (w/v)) [AU] | L* ([1]; formulated at 1% (w/v)) [AU] | L* (% of the control group) ([1]; formulated at 3% (w/v)) | a* (% of the control group) ([1]; formulated at 3% (w/v)) [%] | b* (% of the control group) ([1]; formulated at 3% (w/v)) | b* ([1]; formulated at 3% (w/v)) [AU] | a* ([1]; formulated at 3% (w/v)) [AU] | L* ([1]; formulated at 3% (w/v)) [AU] | Intracellular melanin ([2]; formulated at 1% (w/v)) [µg/mL] | Intracellular melanin ([2]; formulated at 3% (w/v)) [µg/mL] | Percentage of inhibition of tyrosinase activity with the test products relative to the control (tyrosinase; at 0.1 mg/ml) [%] | Percentage of inhibition of tyrosinase activity with the test products relative to the control (tyrosinase; at 1 mg/ml) [%] | inhibition at 100 µg/mL (MC1R receptors; at 0.1 mg/ml) [%] | inhibition at 1000 µg/mL (MC1R receptors; at 1 mg/ml) [%] | other results
1 | OC[C@H]1O[C@@H](Oc2ccc(O)cc2)[C@H](O)[C@@H](O)[C@@H]1O [Arbutin, arbutin] | 9.1 | 90.9 ± 8.4 | +2% | −2% | +1% | 7.64 ± 0.19 | 10.02 ± 0.13 | 40.48 ± 0.85 | +1% | −4 | +3% | 7.73 ± 0.34 | 9.86 ± 0.18 | 41.13 ± 0.54 | 242 ± 46 | 263 ± 16 | 73 | 80 | 0 | 3.7 | effect on the chromametric parameters L*, a* and b* [1, 3]: no significant effect; Activity relative to the control (percentage of specific binding) (MC1R receptors; at 0.1 mg/ml): 100.80 ± 0.55%; Activity relative to the control (percentage of specific binding) (MC1R receptors; at 1 mg/ml): 96.30 ± 4.16%; displacement of the specific binding of the ligand [125I]NDP-α-MSH (MC1R receptors): neither arbutin nor kojic acid, which are the reference depigmenting compounds, displaces the specific binding
2 | Oc1ccc(O)cc1 [Hydroquinone, hydroquinone] | – | – | – | – | – | – | – | – | – | – | – | – | – | – | – | – | 78 | 80 | – | – | L* (% of the control group) ([1]; formulated at 0.1% (w/v)): −9%; a* (% of the control group) ([1]; formulated at 0.1% (w/v)): 0%; b* (% of the control group) ([1]; formulated at 0.1% (w/v)): +3%; b* ([1]; formulated at 0.1% (w/v)): 7.73 ± 0.03 AU; a* ([1]; formulated at 0.1% (w/v)): 10.19 ± 1.21 AU; L* ([1]; formulated at 0.1% (w/v)): 40.59 ± 2.41 AU; effect on the chromametric parameters L*, a* and b* ([1]; topical application at 0.1% (w/v) in an emulsion): no significant effect; Intracellular melanin ([2]; formulated at 0.1% (w/v)): 317 ± 0 µg/mL
3 | O=c1cc(CO)occ1O [Kojic acid, kojic acid] | 0 | – | +3% | +7% | +3% | 7.67 ± 0.03 | 10.90 ± 0.51 | 40.11 ± 1.41 | 0% | −8 | −5% | 7.13 ± 0.09 | 9.36 ± 1.02 | 41.69 ± 0.65 | 273 ± 2 | 234 ± 19 | – | – | 0 | 0 | effect on the chromametric parameters L*, a* and b* [1, 3]: no significant effect; displacement of the specific binding of the ligand [125I]NDP-α-MSH (MC1R receptors): neither arbutin nor kojic acid, which are the reference depigmenting compounds, displaces the specific binding
4 | C=CCCCCCCCCC(=O)NC(Cc1ccccc1)C(=O)O (stereo not drawn) [N-Undecylenoylphenylalanine, N-(ω-undecylenoyl)phenylalanine] | 100 | −0.4 ± 0.3 | 0% | −12% | −21% | 5.96 ± 0.42 | 9.01 ± 1.33 | 41.34 ± 1.15 | +9% | −14 | −29% | 5.38 ± 0.06 | 8.78 ± 0.52 | 45.228 ± 1.49 | 264 ± 9 | 264 ± 11 | 80 | 100 | 42 | 96 | Inhibition of protein kinase A activity (Protein kinase A; listed as N-undecylenoylphenylalanine): totally inhibits; reduction of the a* color parameter ([1]; concentration of 3% (w/v)): 14%; reduction of the b* color parameter ([1]; concentration of 3% (w/v)): 29%; L* (% of the control group) [1, 4]: 9%; inhibition of the b* color parameter ([1]; topical application at 1% (w/v) in an emulsion): 15%; Inhibition of the amount of intracellular melanin ([2]; formulated at 3% (w/v)): 24%; Inhibition of the amount of intracellular melanin [2, 4]: 24%; Inhibition of specific binding by the test products (MC1R receptors; at 0.1 mg/ml): 42.3%; Activity relative to the control (percentage of specific binding) (MC1R receptors; at 0.1 mg/ml): 57.70 ± 2.38%; Inhibition of specific binding by the test products (MC1R receptors; at 1 mg/ml): 95.8%; Activity relative to the control (percentage of specific binding) (MC1R receptors; at 1 mg/ml): 4.20 ± 0.86%
